# Assay results reported in patent US20100022635A1, “Heat shock protein 90 inhibitor dosing methods” (University of Kansas, priority 2008, published 2010).
# How the values were obtained:
# [1] = test system: streptozotocin (STZ)-induced diabetic neuropathy; assay: STZ-induced diabetic neuropathy mouse model, second trial (treatment after 12 weeks of diabetes); format: in vivo
# Experimental: In a second trial, mice were rendered diabetic for 12 weeks. Diabetes was induced in test mice by 3 injections of streptozotocin (STZ) (n=28), and control mice (n=28) received a vehicle injection. Nerve conduction velocity (NCV) was measured in 4 mice from each group after 12 weeks, prior to initiating KU-32 treatment, after which time they developed substantial deficits in MNCV and SNCV (FIG. 7). Asterisks indicates p<0.05 compared to the time matched control. Diabetic mice also developed a substantial mechanical hypoalgesia after 5 weeks (FIG. 8) and a rapid onset of a thermal hypoalgesia (FIG. 9). Thus, any improvements by KU-32 were considered to be indicative of reversibility of a pre-existing deficits and not prevention.
# After 12 weeks of diabetes, mice received weekly doses of 20 mg/kg KU-32 or vehicle by IP injection, and thermal and mechanical hypoalgesia were monitored. […] The asterisk indicates p<0.05 compared to the time matched control. The carat indicates p<0.05 compared to 14 weeks of STZ-Veh. Animal numbers were n=28 for Veh-Veh and STZ-Veh up to 12 weeks. Group numbers were n=12 at initiation of KU-32 and its vehicle (Veh).
# The asterisk indicates p<0.05 compared to the time matched control, and the carat indicates p<0.05 compared to 14 weeks of STZ-Veh. Animal numbers were n=28 for Veh-Veh and STZ-Veh up to 12 weeks. Group numbers were n=12 at initiation of KU-32 and its vehicle (Veh).
# Importantly, a similar recovery was evident after 12 weeks of diabetes despite the onset in improvement requiring 4 weeks of treatment. The delay may relate to the more severe decline in the function of the smaller sensory fibers since treatment was not started until 12 weeks of diabetes. The diabetic mice were very ill after 16 weeks and therefore were terminated at this time. […] Since the deficits in mechanical and thermal hypoalgesia reached a plateau between 12-14 weeks, the measures at 14 weeks of diabetes were used to assess for statistical improvements in sensory function after 3 or more weeks of KU-32 treatment. […] Thus, KU-32 improves nerve function in the absence of an overall improvement in metabolic parameters related to diabetes, i.e., hyperglycemia and weight loss. The data provides solid proof-of-principle that KU-32 can effectively reverse pre-existing deficits in two sensory measures that are direct, clinically relevant, parallels of human symptoms.
# [2] = test system: streptozotocin (STZ)-induced diabetic neuropathy; assay: STZ-induced diabetic neuropathy mouse model, initial studies (treatment after 8 weeks of diabetes); format: in vivo
# Experimental: Physiological studies were performed in a diabetic mouse model to determine if KU-32 is suitable for further pre-clinical development. A mouse model of streptozotocin (STZ)-induced diabetic neuropathy was utilized. One such diabetic mouse model is described, for example, in Christianson et al., Neuroscience, 2007, 145 (1): 303-313. […] Thus, although the drug was capable of attenuating the decline in SNCV, a more powerful indicator of efficacy and clinical usefulness was desired to indicate the drug could reverse a pre-existing deficit in NCV. […] The study was therefore repeated with a larger trial size and under more stringent long-term diabetic conditions prior to weekly drug administration.
# [3] = test system: neuregulin-induced demyelination; assay: Cell culture model of myelinated nerve; format: cell-based
# From the text: Diabetic peripheral neuropathy (DPN) results from the degeneration of nerves that transmit sensations from the legs and arms. Schwann cells are specialized cells that closely associate with many nerves and also undergo profound changes in DPN. Schwann cells are necessary to form the myelin membrane that is present on many peripheral nerves and the loss of this myelin membrane is a common characteristic of human diabetic neuropathy. Identifying molecular mechanisms that may prevent demyelination or enhance remyelination are therefore good targets for therapeutic interventions in human DPN. Altered neurotrophism in DPN is described in detail in, for example, Dobrowsky et al., JPET 313:485-491, 2005. Heat shock protein 90 inhibitors offer a potential therapeutic approach toward treating DPN. A cell culture model of myelinated nerve was used to identify new molecular targets that can prevent demyelination.
# Hsp70 = Hsp70 levels in mouse brain after KU-32 IP administration (Hsp70/actin densitometry); format: in vivo, mice; details: single IP injection 2 or 20 mg/kg, frontal and hind brain sections, FIG. 2
# Experimental: (§1) The plasma and brain levels of the Hsp90 inhibitor KU-32 as a function of time in mice were investigated following IP or IV injection to mice. Pharmacokinetics of KU-32 levels in mouse plasma and brain was determined by LC-MS. For these studies, female Balb/c mice (6-7 weeks) were injected with either 2 or 20 mg/kg KU-32 or vehicle. Mice were sacrificed at predetermined time points and plasma was collected following cardiac puncture for determination of KU-32 levels. The animals were perfused with normal saline and the brain was harvested and homogenized. Half the brain was analyzed for KU-32 levels and the remaining half was analyzed for Hsp70 levels.
# Changes in Hsp70 levels in mouse brain over time following KU-32 IP administration were determined. The ratio of Hsp70 to actin was determined in frontal and hind brain sections recovered from brains of mice at each indicated time point shown in FIG. 2 following administration of either 2 or 20 mg/kg KU-32, as discussed in Example 1. Densitometric analyses were performed, and the ratio of the Hsp70 immunoreactivity was determined using actin as a loading control.
# EAE model = assay: Single vs. weekly dosing in murine EAE MS model; format: in vivo, mice; details: single 20 mg/kg IP dose at onset of symptoms, first onset of disease (10-20 days)
# Experimental: In this example, female SJL/J mice (6-7 weeks old) were immunized with proteolipid protein (“PLP”) in CFA and pertussis toxin IV on day 0. The mice were boosted with PLP in IFA on day seven. At the onset of symptoms, mice received either a single 20 mg/kg dose of KU-32 IP, weekly 2 mg/kg IP doses of KU-32, or no treatment. The mice were scored daily for severity of disease and body weight.
# [4] = test system: Experimental Autoimmune Encephalomyelitis; EAE; assay: Daily dosing in murine EAE multiple sclerosis model; format: in vivo, mice
# From the text: In this example, female SJL/J mice (6-7 weeks old) were immunized with proteolipid protein (“PLP”) in CFA and pertussis toxin IV on day 0. The mice were boosted with PLP in IFA on day seven.
# [5] = Pharmacokinetics: plasma and brain levels of KU-32 in mice by LC-MS; format: in vivo; details: female Balb/c mice, 2 or 20 mg/kg, IP or IV injection, FIG. 1
# Experimental: as §1
# [6] = Phase-solubility of KU-32 in Captisol in water; format: physicochemical
# Experimental: On day 12 of the study mice received 2, 5 or 10 mg/kg KU-32 by IP injection on a daily basis. KU-32 was formulated at all concentrations in 0.05 M Captisol®. To access the phase-solubility behavior of KU-32 in Captisol®, KU-32 in excess of its expected solubility were equilibrated with increasing concentrations of Captisol® in water. The suspensions were allowed to equilibrate at least 24-hours at 25° C., after which time the suspensions were centrifuged and the KU-32 concentration in the supernatant determined by RP-HPLC.
# [7] = diabetic animals receiving KU-32 compared to the diabetic mice
# [8] = weekly 20 mg/kg IP after 8 weeks of diabetes, did not reach significance
smiles,measurement,setting,value
"CO[C@@H]1[C@@H](O)[C@@H](O)[C@H](Oc2ccc3cc(NC(C)=O)c(=O)oc3c2C)OC1(C)C [KU-32, N-(7-((2R,3R,4S,5R)-3,4-dihydroxy-5-methoxy-6,6-dimethyltetrahydro-2H-pyran-2-yloxy)-8-methyl-2-oxo-2H-chromen-3-yl)acetamide]",body weight,[1]; [7],no differences
same,fasting blood glucose,[1]; [7],no differences
same,onset in improvement of thermal sensitivity,[1]; treatment started after 12 weeks of diabetes,4 weeks of treatment
same,mechanical hypoalgesia,"[1]; weekly 20 mg/kg IP after 12 weeks of diabetes, FIG. 8",significantly improved the mechanical hypoalgesia after 3 weeks of treatment
same,thermal hypoalgesia,"[1]; weekly 20 mg/kg IP after 12 weeks of diabetes, FIG. 9",improved thermal hypoalgesia
same,time to improvement in thermal sensitivity,[2]; treatment initiated after 8 weeks of diabetes,evident within two weeks
same,thermal hypoalgesia,[2]; weekly 20 mg/kg IP after 8 weeks of diabetes,sufficient to improve thermal hypoalgesia
same,sensory nerve conduction velocity (SNCV),"[2]; weekly 20 mg/kg IP after 8 weeks of diabetes, decrease observed after 15 weeks of diabetes",helped to improve the decrease in sensory nerve conduction velocity
same,mechanical hypoalgesia,[2]; [8],seemed to have an effect on mechanical hypoalgesia
same,motor NCV (MNCV) deficit,[2]; [8],improved the pre-existing motor NCV (MNCV) deficit
same,neuregulin-induced demyelination,[3],prevent neuregulin-induced demyelination
same,Hsp70 levels in mouse brain (ratio of Hsp70 to actin),Hsp70,increased following single IP injection of KU-32 in mice over a 72-96 hour period and remained elevated
same,clinical score,EAE model; FIG. 5,better clinical score
same,body weight,EAE model; FIG. 6,lost less body weight
same,body weights,"[4]; SJL/J mice, 2, 5 or 10 mg/kg IP daily from day 12, FIG. 3",increase in the rate of onset and worsening of the disease
same,clinical score,"[4]; SJL/J mice, 2, 5 or 10 mg/kg IP daily from day 12, FIG. 4",increase in the rate of onset and worsening of the disease
same,KU-32 levels in mouse plasma and brain over time,[5],fall below detectable limits by eight hours
same,phase-solubility behavior,"[6]; 0.05-0.2 M Captisol in water, at least 24 hours at 25° C., RP-HPLC",AP-type
same,solubility in 0.05 M Captisol,[6]; 0.05 M Captisol,adequate solubility
